From ChEMBL document CHEMBL1201862, “PubChem BioAssay data set” (2004)
Active and inactive are the calls of the source.

How the values were obtained:
H9c2 = assay: cells; format: functional, cell-based; details: Rattus norvegicus, H9c2, Myocardium;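 note: confirmatory concentration-response retest of ultra-high-throughput screening hits for modulation of myocardial damage; cell death induced by hydrogen peroxide oxidative stress; compound pretreatment for 60 min then peroxide exposure for 2 h; potency is for protecting the cells against peroxide damage rather than for killing them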
HEK293 = assay: EBV LMP1 TES2 canonical NF-kB signalling blockers – cell-based, HEK293, luciferase, cherry-pick, dose response (AID 588343); format: functional; details: Homo sapiens
[1] = molecular target: T1, Endoribonuclease toxin MazF (Escherichia coli K-12, UniProt P0AE70); assay: substrate-only fluorescence increase artefacts – biochemical, single-stranded RNase substrate, counter-screen for MazEF activator project, dose response (AID 588502); format: functional
T1 sequence (P0AE70 whole entry): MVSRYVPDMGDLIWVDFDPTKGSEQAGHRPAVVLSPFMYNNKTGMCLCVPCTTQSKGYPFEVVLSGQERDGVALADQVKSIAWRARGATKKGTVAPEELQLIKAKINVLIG

[2] = molecular target: T1, Endoribonuclease toxin MazF; assay: activation of MazEF endoribonuclease cleavage – biochemical, fluorescence, single-stranded RNA substrate, uHTS hits, dose response (AID 588481); format: functional
Steroidogenic factor 1 = Steroidogenic factor 1 (Homo sapiens, UniProt Q13285); assay: Counterscreen for inverse agonists of the liver receptor homolog-1 (LRH-1; NR5A2): Luminescence-based cell-based high throughput dose response assay to identify inverse agonists of the Steroidogenic Factor 1 Nuclear Receptor (SF1; NR5A1).; format: functional
[3] = molecular target: Nuclear receptor subfamily 5 group A member 2 (Homo sapiens, UniProt O00482); format: functional, cell-based;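 note: HEK293T cells transfected with LRH-1 and a StAR promoter luciferase reporter; potency for inhibitors that lower LRH-1 driven reporter light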
[4] = Luminescence Cell-Based Dose Confirmation HTS to Identify Inhibitors of Platelet Dense Granule Release. [Related pubchem assays: 1663 (Primary HTS), 1678 (Summary of Project)]; format: functional
[5] = nonselective StAR promoter luciferase inhibitors – cell-based, luminescence, luciferase reporter, counter-screen for LRH-1 inverse agonist project, dose response (AID 651969); format: functional
[6] = molecular target: Luciferin 4-monooxygenase (Photinus pyralis, UniProt P08659); assay: inhibition of purified Photinus pyralis luciferase – biochemical, luminescence, dose response (AID 1891)
[7] = NIH3T3 cell viability loss – ATP luminescence, mouse fibroblasts, counter-screen, dose response (AID 2010); format: functional, cell-based;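 note: cells exposed to compound for about 90 hours before reading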
[8] = Trypanosoma cruzi growth suppression in host cells – NIH3T3 host cells, beta-gal luminescence, confirmation (AID 2044); format: functional, cell-based;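 note: intracellular parasites grown in NIH/3T3 mouse fibroblasts as host cells; luminescent beta-galactosidase reporter signal from transgenic T. cruzi replicating inside host cells; inhibitors lower the luminescence signal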
[9] = molecular target: T2, Heat shock factor protein 1 (Mus musculus, UniProt P38532); assay: decrease of HSF1-responsive luciferase luminescence – cell-based, NIH3T3, dose retest, confirmation (AID 2382); format: functional;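 note: NIH3T3 fibroblasts with HSF1-driven luciferase reporter stressed by proteasome inhibitor MG132; luminescence from HSF1-driven luciferase expression after 8 hours of MG132 stress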
T2 sequence (P38532 whole entry): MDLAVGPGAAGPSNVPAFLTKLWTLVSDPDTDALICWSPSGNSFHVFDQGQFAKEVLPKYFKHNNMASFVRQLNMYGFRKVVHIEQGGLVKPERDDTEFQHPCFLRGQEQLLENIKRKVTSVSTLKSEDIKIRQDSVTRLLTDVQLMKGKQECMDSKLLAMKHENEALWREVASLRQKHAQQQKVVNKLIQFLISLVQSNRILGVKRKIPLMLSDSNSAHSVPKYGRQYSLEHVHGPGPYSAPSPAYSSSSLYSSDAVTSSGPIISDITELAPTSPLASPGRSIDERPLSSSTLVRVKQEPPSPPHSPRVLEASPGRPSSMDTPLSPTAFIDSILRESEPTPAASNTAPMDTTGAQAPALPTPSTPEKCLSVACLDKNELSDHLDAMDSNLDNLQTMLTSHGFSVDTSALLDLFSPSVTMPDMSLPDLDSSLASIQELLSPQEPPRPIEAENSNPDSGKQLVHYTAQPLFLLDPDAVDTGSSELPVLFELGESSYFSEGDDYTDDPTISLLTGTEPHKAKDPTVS

[10] = Luminescence Cell-Based Dose Response HTS to Identify Inhibitors of 5'UTR Stem-Loop Driven Prion Protein mRNA Translation in H4 Neuroglioblastoma Cells. [Related pubchem assays: 1827 (Project Summary), 1813 (Primary HTS)]; format: functional
[11] = luciferase reporter signal suppression in cells – H4 neuroglioma cells, luminescence, dose response (AID 1990); format: functional, cell-based
[12] = alpha-synuclein stem-loop luciferase translation blockers – H4 neuroglioma cells, luminescence, confirmation (AID 1988); format: functional, cell-based
[13] = molecular target: T3, DNA repair protein RAD52 homolog (Homo sapiens, UniProt P43351); format: functional, biochemical
T3 sequence (P43351 whole entry): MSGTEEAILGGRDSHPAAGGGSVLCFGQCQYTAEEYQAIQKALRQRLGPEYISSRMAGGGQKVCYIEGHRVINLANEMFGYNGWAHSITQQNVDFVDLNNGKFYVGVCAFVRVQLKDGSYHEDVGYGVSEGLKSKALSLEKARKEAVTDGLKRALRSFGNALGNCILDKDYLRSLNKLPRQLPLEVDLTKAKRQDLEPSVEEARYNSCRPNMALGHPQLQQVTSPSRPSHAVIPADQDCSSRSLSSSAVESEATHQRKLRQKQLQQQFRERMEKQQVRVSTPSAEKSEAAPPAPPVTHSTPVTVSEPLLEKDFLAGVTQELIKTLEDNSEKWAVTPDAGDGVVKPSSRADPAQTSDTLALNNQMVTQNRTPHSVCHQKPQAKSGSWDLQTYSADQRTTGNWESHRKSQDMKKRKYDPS

[14] = Luminescence Cell-Based Dose Retest to Confirm Inhibitors of Cancer Stem Cells. [Related pubchem assays (depositor defined):AID2717, AID2721]; format: functional; details: Homo sapiens
[15] = molecular target: T4, High affinity choline transporter 1 (Homo sapiens, UniProt Q9GZV3); assay: human choline transporter blockers, potency – cell-based, 5-point CRC, membrane potential dye, dose response (AID 504840); format: functional
T4 sequence (Q9GZV3 whole entry): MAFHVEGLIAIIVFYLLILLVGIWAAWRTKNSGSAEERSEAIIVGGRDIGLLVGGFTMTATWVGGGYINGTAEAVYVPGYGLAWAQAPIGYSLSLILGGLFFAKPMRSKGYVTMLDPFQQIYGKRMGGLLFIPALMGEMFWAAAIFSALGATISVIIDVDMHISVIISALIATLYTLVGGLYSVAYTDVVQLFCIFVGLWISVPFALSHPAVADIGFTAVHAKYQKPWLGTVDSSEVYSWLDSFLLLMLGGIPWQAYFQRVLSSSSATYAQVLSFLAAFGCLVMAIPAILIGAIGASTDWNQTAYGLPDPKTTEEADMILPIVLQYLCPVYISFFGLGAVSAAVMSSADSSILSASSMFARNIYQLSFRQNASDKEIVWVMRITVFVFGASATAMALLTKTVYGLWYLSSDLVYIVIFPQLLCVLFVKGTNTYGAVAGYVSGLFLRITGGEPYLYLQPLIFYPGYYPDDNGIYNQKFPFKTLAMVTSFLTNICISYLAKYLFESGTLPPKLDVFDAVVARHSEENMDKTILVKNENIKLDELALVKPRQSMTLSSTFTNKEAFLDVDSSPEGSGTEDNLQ

[16] = intracellular Trypanosoma cruzi inhibitors in host cells – cell-based, plate reader, cherry-pick samples, set 3, dose response (AID 651818); format: functional;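 note: compounds incubated with infected cells for about four days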
[17] = Dd2 malaria parasite growth inhibition potency – SYBR Green, dry powder samples, dose response (AID 1159566); format: functional, cell-based;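 note: potency for growth inhibition with lower SYBR green DNA signal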
[18] = growth inhibition of PfATP4-mutant resistant parasites – NITD609-resistant line, SYBR Green, dry powder, dose response (AID 1159571); format: functional, cell-based;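 note: parasites synchronized at ring stage by sorbitol before testing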
[19] = toxicity to human HepG2 hepatoma cells – cell-based, plate reader, dry powder samples, cytotoxicity control, dose response (AID 1159569); format: functional;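 note: inhibitor potency with signal falling toward the positive control level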
[20] = growth inhibition of yeast DHODH-expressing 3D7 parasites – SYBR Green, dry powder samples, dose response (AID 1159570); format: functional, cell-based;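 note: parasite growth measured after 72 hours of compound exposure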
[21] = P. falciparum Dd2 growth inhibitors, dose response, SYBR Green, cherry-picked samples (AID 1159567); format: functional, cell-based

Steroidogenic factor 1, sequence (Q13285 whole entry): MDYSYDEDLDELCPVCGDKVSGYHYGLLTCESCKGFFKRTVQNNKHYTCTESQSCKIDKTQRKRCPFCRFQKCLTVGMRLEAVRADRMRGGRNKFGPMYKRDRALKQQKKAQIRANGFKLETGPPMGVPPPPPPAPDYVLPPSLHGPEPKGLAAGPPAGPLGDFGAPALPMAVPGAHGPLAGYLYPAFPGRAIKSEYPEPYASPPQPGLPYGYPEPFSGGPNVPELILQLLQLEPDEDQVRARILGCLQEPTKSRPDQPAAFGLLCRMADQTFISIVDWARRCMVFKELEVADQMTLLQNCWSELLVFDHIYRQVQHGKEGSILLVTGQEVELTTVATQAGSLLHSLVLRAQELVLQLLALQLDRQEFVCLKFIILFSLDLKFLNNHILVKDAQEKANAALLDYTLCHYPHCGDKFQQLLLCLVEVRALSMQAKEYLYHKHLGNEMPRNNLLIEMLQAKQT
Nuclear receptor subfamily 5 group A member 2, sequence (O00482 whole entry): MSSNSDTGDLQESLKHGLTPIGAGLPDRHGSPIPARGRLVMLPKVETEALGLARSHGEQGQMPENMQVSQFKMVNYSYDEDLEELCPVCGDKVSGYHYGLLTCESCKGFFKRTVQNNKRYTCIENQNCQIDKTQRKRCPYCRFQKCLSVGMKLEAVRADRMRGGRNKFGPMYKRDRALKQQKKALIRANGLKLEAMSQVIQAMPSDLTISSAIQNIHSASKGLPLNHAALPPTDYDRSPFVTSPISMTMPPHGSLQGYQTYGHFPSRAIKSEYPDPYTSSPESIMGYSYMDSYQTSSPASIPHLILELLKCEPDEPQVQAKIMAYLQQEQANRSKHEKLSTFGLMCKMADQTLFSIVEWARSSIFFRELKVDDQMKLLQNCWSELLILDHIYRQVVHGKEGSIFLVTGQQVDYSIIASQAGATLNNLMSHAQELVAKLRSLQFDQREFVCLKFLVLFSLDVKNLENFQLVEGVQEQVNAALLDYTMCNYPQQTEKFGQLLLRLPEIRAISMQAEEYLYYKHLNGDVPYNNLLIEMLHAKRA
Luciferin 4-monooxygenase, sequence (P08659 whole entry): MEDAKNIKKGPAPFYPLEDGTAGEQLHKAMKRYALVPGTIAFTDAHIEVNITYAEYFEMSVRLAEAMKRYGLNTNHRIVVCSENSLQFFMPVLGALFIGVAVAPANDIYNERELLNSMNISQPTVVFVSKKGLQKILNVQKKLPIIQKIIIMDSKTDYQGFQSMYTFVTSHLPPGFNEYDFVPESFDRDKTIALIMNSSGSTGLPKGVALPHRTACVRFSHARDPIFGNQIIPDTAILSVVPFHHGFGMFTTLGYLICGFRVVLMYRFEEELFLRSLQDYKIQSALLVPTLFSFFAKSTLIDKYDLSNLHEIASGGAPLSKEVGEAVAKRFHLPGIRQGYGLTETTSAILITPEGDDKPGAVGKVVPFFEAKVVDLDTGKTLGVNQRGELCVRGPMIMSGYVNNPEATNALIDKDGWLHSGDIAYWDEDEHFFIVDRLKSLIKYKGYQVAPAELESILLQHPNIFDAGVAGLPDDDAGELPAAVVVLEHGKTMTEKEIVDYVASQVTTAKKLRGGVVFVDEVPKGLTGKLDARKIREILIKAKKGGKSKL

SMILES: CNS(=O)(=O)c1ccc2nc(NC(=O)/C=C/c3ccco3)sc2c1
- IC50 (H9c2): > 79 µM (inactive)

SMILES: CC(=O)c1cccc(NC(=O)Nc2ccc(C(=O)N3CCOCC3)cc2)c1
- AC50 (HEK293): 31.8 µM (active)

SMILES: Cc1ccc(N/C=C2/C(=O)N(c3nccs3)C(=O)c3ccccc32)c(C)c1
- EC50 [1]: > 99 µM (inactive)
- EC50 [2]: > 99 µM (inactive)

SMILES: CCc1cc(=O)oc2c(C)c(OCC(=O)NC3CC(C)(C)NC(C)(C)C3)ccc12
- IC50 (Steroidogenic factor 1): 1.82 µM (active)
- IC50 [3]: 35.9 µM (inactive)
- EC50 [4]: > 112 µM (not active)
- IC50 [5]: 35.9 µM (inactive)
- EC50 [6]: > 112 µM (not active)

SMILES: Cc1ccccc1Nc1nc(-c2cccnc2)nc2ccccc12
- IC50 (Steroidogenic factor 1): 12.6 µM (inactive)
- IC50 [3]: 15.5 µM (inactive)
- EC50 [7]: > 60 µM (inconclusive)
- IC50 [5]: 24.9 µM (inactive)
- EC50 [8]: 0.741 µM (active)

SMILES: Cc1c(C(=O)C2=C(O)C(=O)N(CCN3CCOCC3)C2c2ccccn2)cnn1-c1ccccc1 (configuration not stated)
- AC50 (HEK293): 2.31 µM (active)
- EC50 [9]: 1.29 µM (active)

SMILES: CCN(CC)c1ccc(C(=O)NNC(=O)CCc2nc(O)c3ccccc3n2)cc1
- IC50 (H9c2): 18 µM (active)

SMILES: Cn1c(/C=C/c2ccccc2[N+](=O)[O-])nc2ccccc2c1=O
- EC50 [1]: > 99 µM (inactive)
- EC50 [2]: > 99 µM (inactive)

SMILES: COCCn1c(C)cc(C(=O)COC(=O)c2[nH]nc3ccccc23)c1C
- EC50 [10]: 4.02 µM (active)
- EC50 [11]: 4.23 µM (inconclusive)
- AC50 (HEK293): 2.08 µM (active)
- EC50 [12]: 1.58 µM (active)

SMILES: CCCc1cc(=O)oc2cc(C)cc(OCC(=O)Nc3ccccn3)c12
- IC50 (Steroidogenic factor 1): 0.802 µM (active)
- IC50 [3]: 3.99 µM (active)
- IC50 [5]: 35.9 µM (inactive)

SMILES: COc1ccccc1Nc1nc2ccc(C)cc2cc1C#N
- EC50 [1]: 58.3 µM (inactive)
- EC50 [2]: > 99 µM (inactive)

SMILES: CCOc1ccc(OCc2cccc(C(=O)N3CCCC3)c2)cc1
- AC50 (HEK293): 4.43 µM (active)

SMILES: OC(CN1CCCCC1)Cn1c2ccccc2c2cc(Br)ccc21 (configuration not stated)
- AC50 [13]: 19 µM (active)

SMILES: Cc1cc(C)c2sc(N(CCCN(C)C)C(=O)CN3C(=O)c4ccccc4C3=O)nc2c1
- AC50 [13]: 9.02 µM (active)

SMILES: COc1cc2c(cc1OC)C(/C=C(\O)c1ccc([N+](=O)[O-])c(C)c1)=NCC2
- EC50 [1]: 43.8 µM (inactive)
- EC50 [2]: > 99 µM (inactive)

SMILES: Cc1ccc(NC(=O)c2[nH]cnc2C(=O)NCCCNC(=O)c2nc[nH]c2C(=O)Nc2ccc(C)cc2)cc1
- IC50 (H9c2): > 79 µM (inactive)
- AC50 [14]: 3.39 µM (active)

SMILES: CCc1cc(=O)oc2cc(C)cc(OCC(=O)NC3CC3)c12
- IC50 (Steroidogenic factor 1): 0.359 µM (active)
- IC50 [3]: 0.292 µM (active)
- IC50 [5]: 35.9 µM (inactive)

SMILES: Nc1ccc(C(=O)NN2C(=O)[C@H](Cl)C2c2ccc(Cl)cc2)cc1 (some centres not stated)
- IC50 (Steroidogenic factor 1): 11.7 µM (inactive)
- IC50 [3]: 11.9 µM (inactive)
- IC50 [5]: 28.8 µM (inactive)

SMILES: CCCCN(CCCC)CCNC(=O)c1cn(C)c2ccc(S(=O)(=O)N(C)C3CCCCC3)cc2c1=O
- IC50 [15]: 15.6 µM (active)

SMILES: COc1cc(C(=O)NCC(=O)N/N=C/c2ccc(-c3cccc([N+](=O)[O-])c3)o2)cc(OC)c1OC
- IC50 (H9c2): 10.6 µM (active)

SMILES: COc1ccc(/C=N/NC(=O)c2cccnc2)cc1CSc1nc2ccccc2s1
- IC50 (H9c2): 21.2 µM (active)

SMILES: C[C@H](CO)N1C[C@H](C)[C@H](CN(C)C(=O)Nc2ccccc2)Oc2ncc(C#Cc3ccc(C(F)(F)F)cc3)cc2C1=O
- AC50 [16]: 1.37 µM (active)

SMILES: Cc1noc(C)c1S(=O)(=O)Nc1ccc2c(c1)CC(=O)N([C@H](C)CO)C[C@@H](C)[C@@H](CN(C)Cc1ccc(Cl)c(Cl)c1)O2
- AC50 [16]: 6.96 µM (active)

SMILES: C[C@H]1CN([C@@H](C)CO)C(=O)Cc2cc(NC(=O)Nc3ccc(C(F)(F)F)cc3)ccc2O[C@H]1CN(C)Cc1ccc(C(F)(F)F)cc1
- AC50 [16]: 4.47 µM (active)

SMILES: C[C@@H]1CN([C@H](C)CO)C(=O)Cc2cc(NC(=O)Nc3ccc(C(F)(F)F)cc3)ccc2O[C@@H]1CN(C)Cc1ccc(C(F)(F)F)cc1
- AC50 [16]: 1.19 µM (active)

SMILES: C[C@@H]1CCCCO[C@@H](CN(C)Cc2ccc(Cl)c(Cl)c2)[C@@H](C)CN([C@H](C)CO)C(=O)c2cc(NS(=O)(=O)c3ccc(Cl)cc3)ccc2O1
- AC50 [16]: 6.5 µM (active)

SMILES: OC[C@@H]1[C@@H](c2ccccc2)C2(CN(Cc3ccccc3F)C2)N1Cc1ccccc1F
- AC50 [17]: 1.65 µM (active)
- AC50 [18]: 1.94 µM (active)
- AC50 [19]: 35.8 µM (active)
- AC50 [20]: 2.31 µM (active)

SMILES: CN(C)/C=c1\sc2c(C#N)cc(C(=O)c3ccc(Br)cc3)n2c1=O
- EC50 [1]: 22.3 µM (inactive)
- EC50 [2]: > 99 µM (inactive)

SMILES: CC(=O)Nc1cc(Cl)c(/N=C/c2ccc(O)cc2O)cc1Cl
- EC50 [1]: > 99 µM (inactive)
- EC50 [2]: > 99 µM (inactive)

SMILES: COc1ccc(C#Cc2ccc([C@H]3[C@H]4CN(C(=O)c5ccccc5)CC(=O)N4[C@H]3CO)cc2)cc1
- AC50 [17]: 2.26 µM (active)
- AC50 [18]: 2.13 µM (active)
- AC50 [19]: 23.5 µM (active)
- AC50 [20]: 3.84 µM (active)
- AC50 [21]: 2.52 µM (active)
